Data published in US5612204A, “Biological degradative treatment of chlorine substituted ethylene” (priority 1994, dated 1997).
Where two headings read alike, the source gives them in different places.

What was measured:
[1] = tested on: Nocardia corallina B-276 (FERM P-4094; FERM BP-5124; ATCC 31338); assay: Reaction rate of degradation of chlorine-substituted substrates (Example 4, Table 1); type: cell-based
Description: Experiments were also carried on tetrachloroethylene (perchloroethylene) (PCE) and 1,2-dichloroethane (1,2-DCA).
The initial concentration of each substrate in the liquid phase was selected so as not to exceed 20 mg/l, i.e., the range in which no inhibition on the enzyme reaction is expected. Specifically, the substrate was added in an amount of […] which corresponded to 11.2 mg/l of trichloroethylene in terms of initial concentration in the liquid phase. […] The cell concentration during the reaction was set at 4.0 g/l or 8.0 g/l, and the concentration of the substrate remaining in the gas phase was measured with time in the same manner as in Example 3 and converted to the concentration in the liquid phase, from which the reaction rate was calculated.

[2] = tested on: Nocardia corallina B-276 (FERM P-4094; FERM BP-5124; ATCC 31338); assay: Degradation of trichloroethylene by Nocardia corallina B-276 cell suspension (Example 1); type: cell-based; settings: 1 mM trichloroethylene, glucose added, 30° C., 12 hours
Description: In a 500 ml Sakaguchi's flask was put 100 ml of NBG medium (a liquid medium containing 10 g of Lab-Lemco powder (produced by Oxoid Co., Ltd.), 10 g of bacteriological peptone, 10 g of glucose, 5 g of sodium chloride, and water to make 1 l, adjusted to pH 7.5 with a 1N aqueous sodium hydroxide solution, steam sterilized by autoclaving at 120° C. for 15 minutes) and inoculated with three loopfuls of Nocardia corallina B-276 (FERM P-4094; FERM BP-5124; ATCC 31338) using a platinum loop, followed by shake culture at 30° C. for 96 hours for previous proliferation.
The resulting culture was centrifuged to collect the microbial cells, which were suspended in 50 ml of a minimal medium (K2 HPO4 1.74 g, MgSO4. 7H2 O 1.5 g, FeSO4. H2 O 0.05 g, deionized water 1 l; adjusted to pH 8.0) to prepare a cell suspension. […]
For comparison, 50 ml of a cell-free medium (K2 HPO4 1.74 g, MgSO4.7H2 O 1.5 g, FeSO4. H2 O 0.05 g, deionized water 1 l; adjusted to pH 8.0) was put to a flask of the same volume as used above, and 2.5 ml of a 10% glucose solution and trichloroethylene (final concentration: 1 mM) were added thereto. […] The signal intensity (I2) was 95% or more of the initial signal intensity (I0) measured on the medium immediately after addition of trichloroethylene.

[3] = tested on: E. coli JM109 (pDBB-1) (FERM BP-4250), transformant having an alkene monooxygenase gene of Nocardia corallina B-276 origin; assay: Degradation of trichloroethylene by transformant E. coli JM109 (pDBB-1) cell suspension (Example 2); type: cell-based, Escherichia coli; settings: 1 mM trichloroethylene, glucose added, 30° C., 12 hours
Description: LB medium (1.5 ml) (a liquid medium containing 10 g of Bacto-trypton, 5 g of Bacto-yeast extract, 10 g of sodium chloride, and deionized water to make 1 l, adjusted to pH 7.2 with a 1N aqueous […] solution, steam sterilized by autoclaving at 120° C. for 15 minutes) containing 50 μg/ml of ampicillin was inoculated with one loopful of E. coli JM109 (pDBB-1) (FERM BP-4250) using a platinum loop, which is a transformant having an alkene monooxygenase gene of Nocardia corallina B-276 origin, and incubated at 37° C. overnight (about 14 hours) for previous proliferation of the microorganism. Then, 100 ml of LB medium containing 50 μg/ml of ampicillin was inoculated with the resulting culture and incubated at 37° C. for 2 hours. To the culture was added isopropyl-β-D-thiogalactopyranoside (IPTG) at a final concentration of 1 mM, followed by further shake culture at 37° C. for 5 hours. A 10 ml aliquot of the resulting culture was centrifuged to collect the microbial cells, which were suspended in 2 ml of a minimal medium (K2 HPO4 1.74 g, MgSO4.7H2 O 1.5 g, FeSO4.H2 O 0.05 g, deionized water 1 l; adjusted to pH 8.0) to prepare a cell suspension. […]

[4] = tested on: Nocardia corallina B-276 (FERM P-4094; FERM BP-5124; ATCC 31338); assay: Influence of trichloroethylene concentration on reaction rate of biological oxidation (Example 3); type: cell-based; settings: 35° C.
Excerpt: In the biological oxidation of trichloroethylene with Nocardia corallina B-276 (FERM […]; FERM BP-5124; ATCC 31338), the influence of the trichloroethylene concentration on the reaction rate was examined as follows.
Nocardia corallina B-276 (FERM P-4094; FERM BP-5124; ATCC 31338) was previously proliferated in the same manner as described in Example 1. The microbial cells collected were suspended in a medium (K2 HPO4 1.74 g, MgSO4 .7H2 O 1.5 g, FeSO4.H2 O 0.05 g, deionized water 1 l; adjusted to pH 8.0) to prepare a cell suspension.
In a 17 ml-volume flask was put 2 ml of the cell suspension, 100 μl of a 10% glucose solution added as an energy source, a varied amount of trichloroethylene added thereto, and the flask sealed and incubated at 35° C. for 5 hours while shaking to allow the cells to act on the trichloroethylene. The cell concentration was 2.44 g/l. A 1 ml aliquot of the gas was taken out every 1 hour from the gas phase of the sealed flask and analyzed by gas chromatography (column: Porapak Q) to measure the gaseous trichloroethylene concentration. The trichloroethylene concentration remaining in the liquid phase was calculated from the gaseous phase trichloroethylene concentration. This calculation was made on the assumption that the partitioning of trichloroethylene between the gas and liquid phases in the vial are obeyed by the partition law.
FIG. 3 is a graph of rate of reduction of liquid phase trichloroethylene concentration plotted against initial trichloroethylene concentration.

[5] = Cell Concentration 4.0 g/l, initial substrate concentration not exceeding 20 mg/l

Row | SMILES | degradability by Nocardia corallina B-276 [1] | Reaction Rate [1, 5] | Reaction Rate ([1]; cell concentration 4.0 g/l) | degradability by Nocardia corallina B-276 ([1]; result in words) | further results
1 | Cl/C=C\Cl [cis-1,2-Dichloroethylene, cis-1,2-dichloroethylene] | can be degraded | 72.2 mg/L/h | – | – | –
2 | ClC=C(Cl)Cl [Trichloroethylene, trichloroethylene] | – | 5.5 mg/L/h | 5.5 mg/l hr | – | trichloroethylene degraded [2]: about 98%; trichloroethylene concentration remaining in the medium (signal intensity I1 relative to I2) ([2]; sealed flask, gas chromatography, relative to cell-free medium): about 2%; trichloroethylene degraded [3]: about 17%; trichloroethylene concentration remaining in the medium (signal intensity I4 relative to I3) ([3]; sealed flask, gas chromatography): about 83%; Michaelis constant Km of the trichloroethylene substrate ([4]; cell concentration 2.44 g/l, calculated based on the results of FIG. 3): 90.4 mg/L; Km ([4]; cell concentration 2.44 g/l, calculated based on the results of FIG. 3, read-out: Michaelis constant Km of the trichloroethylene substrate): 678 µM; inhibition of the reaction by substrate ([4]; at least up to 90 mg/l of the initial trichloroethylene concentration in the liquid phase): no obvious inhibition
3 | Cl/C=C/Cl [trans-1,2-dichloroethylene] | can be degraded | 6.5 mg/L/h | 6.5 mg/l hr | – | –
4 | ClC(Cl)=C(Cl)Cl [Tetrachloroethylene, tetrachloroethylene] | – | 0 mg/L/h | – | cannot be degraded | –
5 | C=C(Cl)Cl [1,1-Dichloroethylene, 1,1-dichloroethylene] | – | – | – | can be degraded | Reaction Rate ([1]; Cell Concentration 8.0 g/l, initial substrate concentration not exceeding 20 mg/l): 14.8 mg/L/h; reaction rate, corresponding value (for the cell concentration of the other substrates) ([1]; converted from the 8.0 g/l measurement): 7.4 mg/l hr
6 | ClCCCl [1,2-Dichloroethane, 1,2-dichloroethane] | – | 0 mg/L/h | – | cannot be degraded | –
